Measurements: the NIST ThermoML archive (doi:10.1016/j.jct.2006.11.003)
Numbers after ± are expanded uncertainties.

Key:
[1] = xn = mol fraction of the nth substance listed; conditions: 101 kPa, Liquid, x2 = 0
[2] = refractive index (Na D-line) (dimensionless); conditions: 298.15 K; 101.33 kPa; Liquid; Standard Abbe refractometry
[3] = 101 kPa, Liquid

Question: For `CN1CCCC1=O` [N-methylpyrrolidone] + Cc1ccccc1C, which mass density ([1]; 293.15 K) is on record?
Answer: The mass density was 1032.66 ± 0.48 kg/m3.

Question: What about the mass density ([1]; 303.15 K) of the same compound?
Answer: Its mass density is 1023.42 ± 0.44 kg/m3.

Question: And the mass density ([1]; 313.15 K)?
Answer: Its mass density is 1014.27 ± 0.4 kg/m3.

Question: What about the mass density ([1]; 323.15 K) of the same compound?
Answer: Its mass density is 1005.62 ± 0.37 kg/m3.

Question: What about the mass density ([1]; 333.15 K) of the same compound?
Answer: Its mass density is 996.28 ± 0.36 kg/m3.

Question: What about the mass density ([1]; 343.15 K) of the same compound?
Answer: The mass density was 987.39 ± 0.4 kg/m3.

Question: And the mass density ([1]; 353.15 K)?
Answer: The mass density was 978.62 ± 0.43 kg/m3.

Question: Which refractive index [2] does the source give for `Cc1ccc(C)cc1` [1,4-dimethylbenzene] here?
Answer: The refractive index was 1.4958 ± 0.0008.

Question: And the mass density ([3]; 293.15 K)?
Answer: The mass density was 860.95 ± 0.83 kg/m3.

Question: And the mass density ([3]; 298.15 K)?
Answer: Its mass density is 856.58 ± 0.84 kg/m3.

Question: What about the mass density ([3]; 303.15 K) of the same compound?
Answer: Its mass density is 852.3 ± 0.85 kg/m3.

Question: What about the mass density ([3]; 323.15 K) of the same compound?
Answer: Its mass density is 834.76 ± 0.9 kg/m3.

Question: And the mass density ([3]; 333.15 K)?
Answer: Its mass density is 825.86 ± 1.2 kg/m3.

Question: What about the mass density ([3]; 343.15 K) of the same compound?
Answer: Its mass density is 816.87 ± 0.95 kg/m3.

Question: And the mass density ([3]; 353.15 K)?
Answer: Its mass density is 807.81 ± 0.98 kg/m3.

Question: What does the source list for `Cc1cccc(C)c1` [1,3-dimethylbenzene]?
Answer: refractive index [2]: 1.4973 ± 0.0008; mass density ([3]; 293.15 K): 864.31 ± 1.3 kg/m3; mass density ([3]; 298.15 K): 859.83 ± 1.3 kg/m3; mass density ([3]; 303.15 K): 855.64 ± 1.3 kg/m3; mass density ([3]; 313.15 K): 846.9 ± 1.3 kg/m3; mass density ([3]; 323.15 K): 838.09 ± 1.3 kg/m3; mass density ([3]; 333.15 K): 829.22 ± 1.3 kg/m3; mass density ([3]; 343.15 K): 820.29 ± 1.4 kg/m3; mass density ([3]; 353.15 K): 811.29 ± 1.4 kg/m3

Question: With `CN1CCCC1=O` [N-methylpyrrolidone] as the compound, how does the refractive index [2] read?
Answer: Its refractive index is 1.4677 ± 0.0007.

Question: And the mass density ([3]; 293.15 K)?
Answer: The mass density was 1032.66 ± 0.48 kg/m3.

Question: And the mass density ([3]; 298.15 K)?
Answer: Its mass density is 1028.25 ± 0.46 kg/m3.

Question: And the mass density ([3]; 303.15 K)?
Answer: Its mass density is 1023.42 ± 0.44 kg/m3.

Question: And the mass density ([3]; 313.15 K)?
Answer: Its mass density is 1014.27 ± 0.4 kg/m3.

Question: And the mass density ([3]; 323.15 K)?
Answer: Its mass density is 1005.62 ± 0.37 kg/m3.

Question: What about the mass density ([3]; 333.15 K) of the same compound?
Answer: The mass density was 996.28 ± 0.36 kg/m3.

Question: And the mass density ([3]; 343.15 K)?
Answer: The mass density was 987.39 ± 0.4 kg/m3.

Question: And the mass density ([3]; 353.15 K)?
Answer: The mass density was 978.62 ± 0.43 kg/m3.

Question: Which mass density ([1]; 293.15 K) does the source give for `CN1CCCC1=O` [N-methylpyrrolidone] + Cc1ccc(C)cc1 here?
Answer: The mass density was 1032.66 ± 0.48 kg/m3.

Question: And the mass density ([1]; 303.15 K)?
Answer: The mass density was 1023.42 ± 0.44 kg/m3.

Question: What about the mass density ([1]; 313.15 K) of the same compound?
Answer: Its mass density is 1014.27 ± 0.4 kg/m3.

Question: And the mass density ([1]; 323.15 K)?
Answer: Its mass density is 1005.62 ± 0.37 kg/m3.

Question: And the mass density ([1]; 333.15 K)?
Answer: Its mass density is 996.28 ± 0.36 kg/m3.

Question: What about the mass density ([1]; 343.15 K) of the same compound?
Answer: The mass density was 987.39 ± 0.4 kg/m3.

Question: And the mass density ([1]; 353.15 K)?
Answer: The mass density was 978.62 ± 0.43 kg/m3.

Question: With `Cc1ccccc1C` [1,2-dimethylbenzene] as the compound, how does the refractive index [2] read?
Answer: The refractive index was 1.5057 ± 0.0007.

Question: What about the mass density ([3]; 293.15 K) of the same compound?
Answer: Its mass density is 879.84 ± 0.64 kg/m3.

Question: What about the mass density ([3]; 298.15 K) of the same compound?
Answer: Its mass density is 875.73 ± 0.65 kg/m3.

Question: What about the mass density ([3]; 303.15 K) of the same compound?
Answer: The mass density was 871.48 ± 0.66 kg/m3.

Question: And the mass density ([3]; 313.15 K)?
Answer: The mass density was 863.03 ± 0.69 kg/m3.

Question: What about the mass density ([3]; 323.15 K) of the same compound?
Answer: The mass density was 854.51 ± 0.72 kg/m3.

Question: And the mass density ([3]; 333.15 K)?
Answer: Its mass density is 845.91 ± 0.74 kg/m3.

Question: What about the mass density ([3]; 343.15 K) of the same compound?
Answer: The mass density was 837.23 ± 0.77 kg/m3.

Question: What about the mass density ([3]; 353.15 K) of the same compound?
Answer: Its mass density is 828.47 ± 0.8 kg/m3.

Question: For `CN1CCCC1=O` [N-methylpyrrolidone] + Cc1cccc(C)c1, which mass density ([1]; 293.15 K) is on record?
Answer: Its mass density is 1032.66 ± 0.48 kg/m3.

Question: What about the mass density ([1]; 303.15 K) of the same compound?
Answer: The mass density was 1023.42 ± 0.44 kg/m3.

Question: What about the mass density ([1]; 313.15 K) of the same compound?
Answer: The mass density was 1014.27 ± 0.4 kg/m3.

Question: What about the mass density ([1]; 323.15 K) of the same compound?
Answer: Its mass density is 1005.62 ± 0.37 kg/m3.

Question: What about the mass density ([1]; 333.15 K) of the same compound?
Answer: The mass density was 996.28 ± 0.36 kg/m3.

Question: And the mass density ([1]; 343.15 K)?
Answer: The mass density was 987.39 ± 0.4 kg/m3.

Question: And the mass density ([1]; 353.15 K)?
Answer: Its mass density is 978.62 ± 0.43 kg/m3.
